According to a melting point compilation (Tetko et al.; mined from patent text by program, amines drawn as free bases though some values may be those of a salt):

Structure (SMILES) | melting point [°C]
COc1cc(/C=C/C=C/C(=O)NCCN2CCC(c3c[nH]c4ccccc34)CC2)ccc1OC(C)=O | 101 to 105
C[C@@H](CO)n1cc(C(=O)O)c(=O)c2cc(F)c(N3CCN(C)CC3)c(F)c21 | 250 to 255
CCCOc1ccccc1-c1nc2nc(N(C)C)nnc2c(=O)[nH]1 | 258 to 259
CSc1ccc(-c2cccc(-c3nc(C(C)C)[nH]c3-c3cccc(C)n3)c2)cc1 | 80 to 82
CC(C)N1CC2(COc3ccccc3OC2)OC1=O | 118 to 120
COc1ccc(C(=O)Cc2ccc(Br)cc2)cc1 | 142
CC1CCN(c2cc3nc(C(C)(C)C)sc3cc2[N+](=O)[O-])CC1 | 116 to 120
O=C(O)c1cn(-c2ccc(F)c([N+](=O)[O-])c2)c2nc(Cl)c(F)cc2c1=O | > 270
CC(C)(C)OC(=O)N1CCc2c(n(CCCc3ccccc3)c3ccc(Cl)c(Cl)c23)CC1 | 114 to 116
CCCNC1Cc2ccc(C3=NNC(=O)CC3)cc2C1 (stereo unspecified) | 137 to 138
CCC(CC)C(c1ccnn1-c1ccccc1)N(C)S(=O)(=O)c1ccc(Cl)c(Cl)c1 (stereo unspecified) | 102 to 104
CC1(c2ccccc2)OC(=O)C(=O)CC1=O (stereo unspecified) | 142 to 144
COc1ccc(C)c2nc(Cl)c(C(C)C)cc12 | 74 to 76
CCc1nn2ccccc2c1NC(C)=O | 184 to 188
CS(=O)(=O)c1ccc(-c2nc(C(F)(F)F)nn2-c2ccc(O)cc2)cc1 | 246
NCC#Cc1ccc(Cl)cc1C(=O)c1ccccc1Cl | 81 to 89
O=Cc1c(-c2ccccc2)nn2ccccc12 | 221 to 222
COc1ccc(Cl)cc1-c1c(Sc2ccncc2)c(=O)[nH]c2ccc(C(F)(F)F)cc12 | 257 to 260
CCOC(=S)c1cc(C)c(Br)cc1N | 48 to 50
CC(C)(C)OC(=O)Nc1ccc(OCc2ccccc2)c(C(=O)O)c1 | 136 to 139
CSc1nccc(-c2c3cccnc3n3c(NC(C)=O)nccc23)n1 | 160 to 162
CC(C)C1(Cl)Cc2cc(OCC(=O)O)cc(Cl)c2C1=O (stereo unspecified) | 142
CCC(N(C)C)n1cc(C(=O)CN2CCCCC2)cc1C(=O)c1ccc(Cl)cc1 (stereo unspecified) | 138 to 141
Fc1ccc(Nc2ncnc3cnc(N4CCC(N5CCCC5)CC4)nc23)cc1Cl | 202 to 204

Structure (SMILES) | melting point [°C]
N#CCCCCc1cccc2cncn12 | 72 to 75
COc1ccc(C2=CCN(Cc3c[nH]c4ncccc34)CC2)cc1 | 202 to 204
CSc1nn2c(O)cc(C)nc2c1S(=O)(=O)c1ccc(C)cc1 | > 230
O=C1C(=Cn2ccnc2)C(c2ccccc2)c2ccccc21 (stereo unspecified) | 204 to 206
CCCCNC(=O)[C@@H](C[C@H](O)[C@H](CC1CCCCC1)NC(=O)OC(C)(C)C)C(C)C | 115 to 118
CCc1cnc(CSc2cnc(NC(C)=O)s2)o1 | 147 to 148
CC(C)c1cc(Cl)cc2c1OC(C(F)(F)F)C(C(=O)O)=C2 (stereo unspecified) | 185 to 189
Cn1nc(-c2ccccc2)c(Oc2ccc([N+](=O)[O-])cc2)c1-c1ccccc1 | 85 to 110
Nc1ccccc1OC1CCCC1 | 87 to 87.5
N#CCc1c[nH]c2ccc(CS(N)(=O)=O)cc12 | 184 to 185
CCOC(=Nc1cccc(C(F)(F)F)c1)C(C)C | 95 to 100
Cc1ccc(C(=O)CCCOC(=O)Nc2ccccc2)cc1 | 106 to 109
Cc1ccc(N2CCN(CCCCl)CC2)cc1 | 34 to 36
CN1C(=O)CCC2(C)c3ccc(-c4cccc(F)c4)cc3CCC12 (single isomer, unassigned; (+)) | 116 to 120
O=C1NCN(c2ccc(F)cc2)C12CCN(CCCN(c1ccc(F)cc1)c1ccc(F)cc1)CC2 | 162 to 163
CCCCOCCOc1ccc(-c2ccc3c(c2)C=C(C(=O)Nc2ccc(SCc4nccn4CCCC(N)=O)cc2)CCN3CC(C)C)cc1 | 142 to 143
COC(=O)c1ccc2cc(-c3ccc(C(=O)OC)c(C45CC6CC(CC(C6)C4)C5)c3)ccc2c1 | 181 to 182
Nc1cc(F)c(Sc2ccc(C(F)(F)F)cc2Cl)cc1F | 95.9
COC(=O)Nc1nc(C)cc(OC)n1 | 89 to 92.5
C=CCOc1ccc(-c2ccc(C(=O)OCC)cc2)cc1 | 89 to 92
Cc1cnc2c(N)cccc2c1Cl | 112 to 114
N#CCC(=O)c1cccn1Cc1ccccc1 | 119 to 120
CC(NC(Nc1cc(C(F)(F)F)cc(C(F)(F)F)c1)=C(C#N)S(C)(=O)=O)C(C)(C)C (stereo unspecified) | 181 to 182
O=C(O)C1=Cc2ccccc2SC1C(F)(F)F (stereo unspecified) | 187 to 190

Structure (SMILES) | melting point [°C]
CCCCNC(=O)n1c(=NC(F)(F)F)oc2ccc([N+](=O)[O-])cc21 | 121 to 122
Nc1nc(NCc2ccccc2)nc(-c2cc(Cl)ccc2Cl)n1 | 200 to 201
COc1cc2cc(COCC(=O)N3CCN(C)CC3)c(CO)c(-c3ccnc(-n4c(=O)ccc5ccccc54)c3)c2cc1OC | 100 to 102
CC(O)c1cccc(Oc2ncccc2OCCCc2ccncc2)c1 (stereo unspecified) | 93 to 97
COc1ccc(C2=NN(CCCCN)C(=O)[C@H]3CC=CC[C@@H]23)cc1OC (relative stereo) | 108 to 109
COc1cccc(N(CCN2CCC(C(=O)c3ccc(F)cc3)CC2)C(=O)c2ccc(NC(C)=O)cc2)c1 | 146 to 152
Cc1nnc(-c2cc3c(OCCCN4CCC(c5ccc6c(c5)OCO6)CC4)cccc3o2)o1 | 125 to 127
CCOC(=O)c1[nH]c(=O)[nH]c(=O)c1[N+](=O)[O-] | 259
O=C1Nc2ccccc2SC1CCCCO (stereo unspecified) | 101 to 102
CCOC(=O)c1cn(C2CC2)c2cc(Cl)c(F)c(Cl)c2c1=O | 227 to 229
Cc1cc(C)cc(C(=O)c2c(C(C)C)c(=O)[nH]c(=O)n2CC2=CC(CO)C(CO)C2)c1 (stereo unspecified) | 81 to 82
COc1ccc(Nc2cc([N+](=O)[O-])ccc2C)c(C(=O)O)c1 | 219 to 221
CC(C)(C)c1ccc(/C=C/C(=O)Nc2ccccc2)cc1 | 141
Cn1nnnc1CC(=S)NCCc1ccc(OCc2ccccc2)c(OCc2ccccc2)c1 | 110
CC(C)(C)NC(=O)N(Cc1ccccc1)CC(O)C(Cc1ccccc1)NC(=O)C(CC(N)=O)NC(=O)c1ccc2ccccc2n1 (stereo unspecified) | 110 to 112
Cc1cc(Cl)nc(N(C(N)=O)c2ccccc2[N+](=O)[O-])n1 | 155
CCOc1cccc(CNC(=O)c2nc3scc(COCc4ccc(C(=O)O)cc4)c3c(=O)[nH]2)c1 | 240
COC(=O)c1cc2c(Cl)cccc2s1 | 84 to 86
COc1ccc2c(c1)c(Cc1cc(=O)n(-c3ccc(C)nn3)[nH]1)c(C)n2C(=O)c1ccc(Cl)cc1 | 122 to 124
COc1ccc(-c2c(C)ccn2N2C(=O)c3ccccc3C2=O)c(Cl)c1 | 202 to 208
C=C1CC2C(CCC3(C)C2CCC3(O)C(C)=O)C2(C)CCC(=O)C=C12 (stereo unspecified) | 218 to 220
C=CCOc1cccc2c1ONC(=O)C2 | 174 to 175
COc1ccc(S(=O)(=O)n2ccc3ccnc(-c4ccco4)c32)cc1 | 127 to 130
